Key:
Assay in all cases: relative viability (nuclei count vs DMSO), 5 days (fraction); higher = more cells survive
Venetoclax + OSI-027 = compound: CC1(C)CCC(CN2CCN(c3ccc(C(=O)NS(=O)(=O)c4ccc(NCC5CCOCC5)c([N+](=O)[O-])c4)c(Oc4cnc5[nH]ccc5c4)c3)CC2)=C(c2ccc(Cl)cc2)C1 [Venetoclax] + COc1cccc2cc(-c3nc([C@H]4CC[C@H](C(=O)O)CC4)n4ncnc(N)c34)[nH]c12 [OSI-027] (partner 0.5 µM)
Summary of the method: (§1)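 Lung cancer cell lines in 1536-well plates got either a single drug or a fixed anchor-drug dose together with five library-drug doses (not always all listed) in √10 steps, by pin tool, on the day after seeding. Nuclei were counted after 5 days, and relative viability is the treated-to-vehicle ratio of nuclei counts. Values are medians of duplicate plates.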

Venetoclax + Vorinostat = compound: CC1(C)CCC(CN2CCN(c3ccc(C(=O)NS(=O)(=O)c4ccc(NCC5CCOCC5)c([N+](=O)[O-])c4)c(Oc4cnc5[nH]ccc5c4)c3)CC2)=C(c2ccc(Cl)cc2)C1 [Venetoclax] + O=C(CCCCCCC(=O)Nc1ccccc1)NO [Vorinostat] (partner 1 µM)
Summary of the method: as §1

Selumetinib + Navitoclax = compound: Cn1cnc2c(F)c(Nc3ccc(Br)cc3Cl)c(C(=O)NOCCO)cc21 [Selumetinib] + CC1(C)CCC(c2ccc(Cl)cc2)=C(CN2CCN(c3ccc(C(=O)NS(=O)(=O)c4ccc(N[C@H](CCN5CCOCC5)CSc5ccccc5)c(S(=O)(=O)C(F)(F)F)c4)cc3)CC2)C1 [Navitoclax] (partner 0.5 µM)
Summary of the method: as §1

Selumetinib + Linsitinib = compound: Cn1cnc2c(F)c(Nc3ccc(Br)cc3Cl)c(C(=O)NOCCO)cc21 [Selumetinib] + C[C@]1(O)C[C@@H](c2nc(-c3ccc4ccc(-c5ccccc5)nc4c3)c3c(N)nccn32)C1 [Linsitinib] (partner 1 µM)
Summary of the method: as §1

Cell Line	relative viability (Venetoclax + OSI-027; first compound 0.01 µM)	relative viability (Venetoclax + OSI-027; first compound 0.03162 µM)	relative viability (Venetoclax + OSI-027; first compound 0.1 µM)	relative viability (Venetoclax + OSI-027; first compound 0.3162 µM)	relative viability (Venetoclax + OSI-027; first compound 1 µM)	relative viability (Venetoclax + Vorinostat; first compound 0.01 µM)	relative viability (Venetoclax + Vorinostat; first compound 0.03162 µM)	relative viability (Venetoclax + Vorinostat; first compound 0.1 µM)	relative viability (Venetoclax + Vorinostat; first compound 0.3162 µM)	relative viability (Venetoclax + Vorinostat; first compound 1 µM)	relative viability (Selumetinib + Navitoclax; first compound 0.02 µM)	relative viability (Selumetinib + Navitoclax; first compound 0.06325 µM)	relative viability (Selumetinib + Navitoclax; first compound 0.2 µM)	relative viability (Selumetinib + Navitoclax; first compound 0.6325 µM)	relative viability (Selumetinib + Linsitinib; first compound 0.02 µM)	relative viability (Selumetinib + Linsitinib; first compound 0.06325 µM)	relative viability (Selumetinib + Linsitinib; first compound 0.2 µM)	relative viability (Selumetinib + Linsitinib; first compound 0.6325 µM)
RERF-LC-KJ	0.555	0.552	0.577	0.577	0.521	0.587	0.701	0.682	0.686	0.718	0.726	0.819	0.939	0.758	0.828	0.949	0.862	0.796
SK-LU-1	0.38	0.436	0.345	0.365	0.329	0.771	0.803	0.755	0.745	0.719	0.795	0.791	1.24	0.268	0.897	1.06	0.903	0.625
SK-MES-1	0.61	0.626	0.599	0.572	0.518	1.01	1.1	1.06	1.08	0.966	1.41	1.32	1.26	1.06	1.03	1.03	0.814	0.775
SW 1573	0.573	0.658	0.585	0.506	0.529	0.712	0.656	0.643	0.692	0.572	0.965	0.853	0.716	0.729	0.779	0.642	0.683	0.596

Reference: the supplement of paper PMC10307832
